Measurements published in the supplement of paper PMC10307832.

Columns and labels:
Assay in all cases: relative viability (nuclei count vs DMSO), 5 days (fraction); higher = more cells survive
Irinotecan + Lapatinib = compound: CCc1c2c(nc3ccc(OC(=O)N4CCC(N5CCCCC5)CC4)cc13)-c1cc3c(c(=O)n1C2)COC(=O)[C@]3(O)CC [Irinotecan] + CS(=O)(=O)CCNCc1ccc(-c2ccc3ncnc(Nc4ccc(OCc5cccc(F)c5)c(Cl)c4)c3c2)o1 [Lapatinib] (partner 2 µM)
Method in brief: (§1)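 Relative viability is defined as nuclei in treated wells over nuclei in vehicle wells. Duplicate plates were run and medians reported. Lung cancer cell lines in 1536-well plates were dosed by pin tool one day after seeding, with one drug or with a fixed anchor-drug dose plus five library-drug doses (not always all listed) in √10 steps, and nuclei were counted after 5 days.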

MK-8033 + Phenformin = compound: Cn1cc(-c2cnc3ccc4ccc(CS(=O)(=O)NCc5ccccn5)cc4c(=O)c3c2)cn1 [MK-8033] + N=C(N)NC(=N)NCCc1ccccc1 [Phenformin] (partner 250 µM)
Method in brief: as §1

MK-8033 + Olaparib = compound: Cn1cc(-c2cnc3ccc4ccc(CS(=O)(=O)NCc5ccccn5)cc4c(=O)c3c2)cn1 [MK-8033] + O=C(c1cc(Cc2n[nH]c(=O)c3ccccc23)ccc1F)N1CCN(C(=O)C2CC2)CC1 [Olaparib] (partner 8 µM)
Method in brief: as §1

RU-SKI 43 + Phenformin = compound: CC[C@@H](C)CNCC(=O)N1CCC2=C([C@@H]1COC3=CC=CC(=C3)C)C=CS2 [RU-SKI 43] + N=C(N)NC(=N)NCCc1ccccc1 [Phenformin] (partner 250 µM)
Method in brief: as §1

Cell Line	relative viability (Irinotecan + Lapatinib; first compound 0.6325 µM)	relative viability (Irinotecan + Lapatinib; first compound 2 µM)	relative viability (Irinotecan + Lapatinib; first compound 6.325 µM)	relative viability (Irinotecan + Lapatinib; first compound 20 µM)	relative viability (MK-8033 + Phenformin; first compound 0.02 µM)	relative viability (MK-8033 + Phenformin; first compound 0.06325 µM)	relative viability (MK-8033 + Phenformin; first compound 0.2 µM)	relative viability (MK-8033 + Phenformin; first compound 0.6325 µM)	relative viability (MK-8033 + Phenformin; first compound 2 µM)	relative viability (MK-8033 + Olaparib; first compound 0.02 µM)	relative viability (MK-8033 + Olaparib; first compound 0.06325 µM)	relative viability (MK-8033 + Olaparib; first compound 0.2 µM)	relative viability (MK-8033 + Olaparib; first compound 0.6325 µM)	relative viability (MK-8033 + Olaparib; first compound 2 µM)	relative viability (RU-SKI 43 + Phenformin; first compound 0.1 µM)	relative viability (RU-SKI 43 + Phenformin; first compound 0.3162 µM)	relative viability (RU-SKI 43 + Phenformin; first compound 1 µM)	relative viability (RU-SKI 43 + Phenformin; first compound 3.162 µM)	relative viability (RU-SKI 43 + Phenformin; first compound 10 µM)
LU99A	0.367	0.309	0.203	0.197	0.859	0.747	0.773	0.845	0.751	0.28	0.222	0.223	0.266	0.22	0.862	0.955	0.863	0.871	0.654
LXF-289	0.881	0.883	0.315	0.236	0.559	0.504	0.499	0.547	0.538	1.06	1.05	1.02	1.12	1.03	0.53	0.551	0.574	0.548	0.514
NCI-H23	0.653	0.466	0.277	0.271	0.795	0.81	0.715	0.857	0.814	0.295	0.307	0.221	–	0.332	0.772	0.849	0.836	0.857	0.698
NCI-H322M	0.585	0.654	0.328	0.363	0.779	0.662	0.698	0.936	0.749	0.725	0.762	0.733	0.782	0.739	0.718	0.758	0.832	0.833	0.771
NCI-H358	0.406	0.47	0.327	0.21	0.369	0.296	0.296	0.307	0.318	0.561	0.553	0.577	0.715	0.57	0.305	0.432	0.402	0.436	0.271
NCI-H460	0.287	0.475	0.0664	0.0537	0.543	0.486	0.506	0.542	0.491	0.419	0.462	0.36	0.498	0.413	0.534	0.973	0.788	0.575	0.467
NCI-H520	0.604	0.664	0.28	0.2	0.766	0.424	0.503	0.639	0.542	0.306	0.326	0.357	0.307	0.315	0.673	0.629	0.519	0.581	0.561
NCI-H596	1.11	1.03	0.613	0.579	0.854	0.662	0.741	0.657	0.627	0.698	0.613	0.616	0.7	0.737	0.776	0.808	0.725	0.921	0.77
NCI-H647	0.865	0.44	0.199	0.138	0.508	0.448	0.509	0.546	0.549	0.7	0.476	0.479	0.661	0.515	0.631	0.621	0.84	0.686	0.501
NCI-H650	0.757	0.693	0.275	0.31	0.441	0.445	0.464	0.437	0.47	0.412	0.364	0.403	0.399	0.335	0.479	0.37	0.509	0.425	0.475
NCI-H661	0.478	0.357	0.314	0.296	0.26	0.254	0.27	0.267	0.292	0.726	0.679	0.774	0.71	0.675	0.288	0.281	0.324	0.281	0.267
NCI-H727	0.339	0.503	0.445	0.369	0.7	–	0.435	0.627	0.465	0.679	0.603	0.337	0.702	0.808	0.524	0.59	0.676	0.662	0.445
NCI-H838	1.03	0.874	0.399	0.161	0.622	0.572	0.524	0.555	0.543	0.783	0.727	0.707	0.753	0.716	0.682	0.626	0.745	0.654	0.682
NCI-H1355	0.534	0.909	0.264	0.242	0.444	0.401	0.424	0.435	0.432	0.759	0.759	0.632	0.756	0.696	0.49	0.446	0.475	0.472	0.438
NCI-H1395	–	0.732	0.531	0.361	0.448	0.412	0.43	0.45	0.416	0.448	0.362	0.463	0.469	0.462	0.485	0.453	0.476	0.421	0.433
